Measurements from PMC9865212, “Compounds from the Petroleum Ether Extract of Wedelia chinensis with Cytotoxic, Anticholinesterase, Antioxidant, and Antimicrobial Activities” (Molecules, 2023).
Values after ≈ are worked out from the molar mass of the structure shown. Where two headings read alike, the source gives them in different places.

How the values were obtained:
[1] = tested on: Escherichia coli; test: microbe, parasite or virus in culture; format: cell-based, Escherichia coli (FPFC-1407)
[2] = target: T1, BChE enzyme from human blood (Homo sapiens, UniProt P06276); test: Anti-BChE assay, Ellman method; format: biochemical
T1 construct: BChE enzyme from human blood of a volunteer; from tissue; host or cells: human blood of a volunteer
T1 sequence (P06276 29-602): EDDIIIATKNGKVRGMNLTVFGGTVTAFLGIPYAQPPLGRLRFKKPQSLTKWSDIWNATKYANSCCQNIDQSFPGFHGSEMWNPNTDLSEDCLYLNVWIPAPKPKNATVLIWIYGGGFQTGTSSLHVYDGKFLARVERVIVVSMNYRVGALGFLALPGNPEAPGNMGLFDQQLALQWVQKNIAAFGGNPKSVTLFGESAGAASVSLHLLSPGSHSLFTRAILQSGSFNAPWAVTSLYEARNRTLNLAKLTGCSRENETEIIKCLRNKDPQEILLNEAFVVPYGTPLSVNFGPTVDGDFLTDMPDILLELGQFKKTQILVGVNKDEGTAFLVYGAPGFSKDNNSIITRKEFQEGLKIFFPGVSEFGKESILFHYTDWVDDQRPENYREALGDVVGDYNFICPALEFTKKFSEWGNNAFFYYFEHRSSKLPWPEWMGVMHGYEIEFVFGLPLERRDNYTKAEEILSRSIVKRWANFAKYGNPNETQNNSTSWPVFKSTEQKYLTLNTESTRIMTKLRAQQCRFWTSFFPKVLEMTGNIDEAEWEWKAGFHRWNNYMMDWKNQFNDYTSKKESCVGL
Procedure: (§1) We used the prepared AChE enzyme from mice brain and BChE enzyme from human blood of a volunteer that has been mentioned earlier. Various concentrations of the compound (500 μL) were mixed with the enzyme solution (500 μL) and incubated at 37 °C for 30 min. A reaction mixture was prepared that contained 0.5 mM acetylthiocholine/butyrylthiocholine and 1 mM DTNB in 50 mM sodium phosphate buffer (pH 8.0). To the reaction mixture (3.5 mL), the enzyme solution containing compound was added, incubated, and immediately the absorbance of the solution was determined at 412 nm. […] The percent inhibition was calculated by dividing the difference of sample absorbance from control with control absorbance × 100.

[3] = tested on: Salmonella typhi; test: microbe, parasite or virus in culture; format: cell-based, Salmonella typhi (ATCC-14028); details: for zone of inhibition at 400 µg/disc: Salmonella enterica
[4] = tested on: Shigella flexneriae; test: microbe, parasite or virus in culture; format: cell-based, Shigella flexneriae (AM-36282)
[5] = tested on: Sarcina lutea; test: microbe, parasite or virus in culture; format: cell-based, Sarcina lutea (QL-1660); details: for zone of inhibition at 400 µg/disc: Micrococcus luteus
[6] = tested on: Shigella sonnei; test: microbe, parasite or virus in culture; format: cell-based, Shigella sonnei (AJ-8992)
[7] = Reducing power assay (antioxidant, Fe3+ to Fe2+); details: at a concentration of 40 µg/mL, absorbance at 700 nm
[8] = tested on: Aspergillus flavus; test: microbe, parasite or virus in culture; format: cell-based, Aspergillus flavus (ATCC-9807)
[9] = tested on: Aspergillus niger; format: cell-based, Aspergillus niger (ATCC-1204)
[10] = tested on: Klebsiella species; test: microbe, parasite or virus in culture; format: cell-based
[11] = target: T2, AChE enzyme from mice brain (Mus musculus, UniProt P21836); test: biochemical
T2 construct: We used the prepared AChE enzyme from mice brain; from tissue; host or cells: mouse brain
T2 sequence (P21836 32-614): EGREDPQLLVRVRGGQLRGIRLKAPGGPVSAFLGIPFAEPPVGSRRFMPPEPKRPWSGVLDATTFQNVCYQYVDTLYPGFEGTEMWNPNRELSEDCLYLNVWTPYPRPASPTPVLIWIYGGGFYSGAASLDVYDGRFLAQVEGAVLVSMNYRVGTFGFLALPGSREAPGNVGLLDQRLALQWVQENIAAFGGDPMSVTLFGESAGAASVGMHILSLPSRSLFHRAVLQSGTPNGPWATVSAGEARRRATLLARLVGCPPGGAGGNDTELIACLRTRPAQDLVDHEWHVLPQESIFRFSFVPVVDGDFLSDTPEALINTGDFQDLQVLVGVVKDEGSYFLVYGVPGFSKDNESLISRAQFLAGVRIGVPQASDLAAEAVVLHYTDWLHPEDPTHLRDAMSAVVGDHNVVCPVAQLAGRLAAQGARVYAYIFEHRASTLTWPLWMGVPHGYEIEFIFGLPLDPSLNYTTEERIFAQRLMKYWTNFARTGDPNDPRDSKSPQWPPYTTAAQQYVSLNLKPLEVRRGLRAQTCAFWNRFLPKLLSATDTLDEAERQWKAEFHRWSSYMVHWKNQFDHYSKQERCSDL
Procedure: as §1

[12] = tested on: Fusarium species; test: microbe, parasite or virus in culture; format: cell-based
[13] = tested on: Pseudomonas aeruginosa; test: microbe, parasite or virus in culture; format: cell-based, Pseudomonas aeruginosa (ATCC-27853)
[14] = tested on: Bacillus megaterium; test: microbe, parasite or virus in culture; format: cell-based, Bacillus megaterium (QL-38); details: for zone of inhibition at 400 µg/disc: Priestia megaterium
[15] = tested on: Shigella dysenteriae; test: microbe, parasite or virus in culture; format: cell-based, Shigella dysenteriae (AL-35587)
[16] = Brine shrimp lethality bioassay (cytotoxicity); details: Artemia salina (brine shrimp nauplii), in vivo
[17] = tested on: Shigella boydii; test: microbe, parasite or virus in culture; format: cell-based, Shigella boydii (AL-17313)
[18] = tested on: Strep-β-haemolyticus; test: organism not typed; format: cell-based, Streptococcus-ß-haemolyticus (ATCC-10389)
[19] = tested on: Bacillus Subtilis; test: microbe, parasite or virus in culture; format: cell-based, Bacillus subtilis (QL-40)
[20] = tested on: Shigella shiga; test: microbe, parasite or virus in culture; format: cell-based, Shigella shiga (ATCC-26107); details: for zone of inhibition at 400 µg/disc: Shigella
[21] = tested on: Candida species; test: microbe, parasite or virus in culture; format: cell-based
[22] = tested on: Staphylococcus aureus; test: microbe, parasite or virus in culture; format: cell-based, Staphylococcus aureus (ATCC-259233)
[23] = tested on: brine shrimp nauplii (Artemia salina Lech); test: Brine shrimp lethality bioassay (cytotoxicity); details: brine shrimp lethality, 5–80 μg/mL

Row | Structure (SMILES) | zone of inhibition at 400 µg/disc ([1]; 400 μg/disc) [mm] | IC50 [2] [µM] | zone of inhibition at 400 µg/disc ([3]; 400 μg/disc) [mm] | zone of inhibition at 400 µg/disc ([4]; 400 μg/disc) [mm] | zone of inhibition at 400 µg/disc ([5]; 400 μg/disc) [mm] | zone of inhibition at 400 µg/disc ([6]; 400 μg/disc) [mm] | absorbance (reducing power) [7] | Zone of Inhibition ([9]; 400μg/disc) | zone of inhibition at 400 µg/disc ([10]; 400 μg/disc) [mm] | IC50 [11] [µM] | zone of inhibition at 400 µg/disc ([13]; 400 μg/disc) [mm] | zone of inhibition at 400 µg/disc ([14]; 400 μg/disc) [mm] | zone of inhibition at 400 µg/disc ([15]; 400 μg/disc) [mm] | LC50 at 24 h [16] [µg/mL] | zone of inhibition at 400 µg/disc ([17]; 400 μg/disc) [mm] | zone of inhibition at 400 µg/disc ([18]; 400 μg/disc) [mm] | zone of inhibition at 400 µg/disc ([19]; 400 μg/disc) [mm] | zone of inhibition at 400 µg/disc [20] [mm] | zone of inhibition at 400 µg/disc ([22]; 400 μg/disc) [mm] | Zone of Inhibition ([21]; 400μg/disc) | other results
1 | C=C1C[C@@]23CCC4[C@](C)(C(=O)O)CCC[C@@]4(C)[C@@H]2CC[C@@H]1C3 (single isomer, unassigned; (-)) [Compound 2, (-) kaur-16-en-19-oic acid] | 16 | 111 | 15 | 13 | 16 | 13 | 1.26 | − | 17 | 115 | 16 | 12 | 20 | 16.2 ± 1.11 (≈ 53.5 µM) | 14 | 18 | 14 | 15 | 13 |  | zone of inhibition at 400 µg/disc ([8]; 400μg/disc): 17 mm; zone of inhibition at 400 µg/disc ([12]; 400μg/disc): 11 mm; zone of inhibition at 400 µg/disc ([21]; 400μg/disc): 13 mm
2 | C[C@@]12CCC[C@@](C)(C(=O)O)[C@H]1CC[C@@]13C[C@@H](CC[C@H]12)[C@](C)(O)C3 [Compound 1, (-) kaur-16α-hydroxy-19-oic acid] | 14 |  | 13 | 12 | 17 | 15 | 1.55 | − | 15 |  | 15 | 14 | 19 | 12.4 ± 0.87 (≈ 38.8 µM) | 13 | 17 | 13 | 14 | 23 | inactive and − | IC50 ([2]; mean ± SD (n = 3), read-out: IC50, inhibition of butyrylcholinesterase (BChE) (converted)): 145 µM; zone of inhibition at 400 µg/disc ([8]; 400μg/disc): 14 mm; IC50 ([11]; mean ± SD (n = 3), read-out: IC50, inhibition of acetylcholinesterase (AChE) (converted)): 152 µM; zone of inhibition at 400 µg/disc ([12]; 400μg/disc): 12 mm
3 | CC[C@H](CC[C@@H](C)[C@H]1CC[C@H]2[C@@H]3CC=C4C[C@@H](O)CC[C@]4(C)[C@H]3CC[C@]12C)C(C)C [Compound 3, β-sitosterol] |  | 104 |  |  |  |  |  | − |  | 107 |  |  |  |  |  |  |  |  |  | − | Zone of Inhibition ([1]; 400 μg/disc): −; Zone of Inhibition ([3]; 400 μg/disc): −; Zone of Inhibition ([4]; 400 μg/disc): −; Zone of Inhibition ([5]; 400 μg/disc): −; Zone of Inhibition ([6]; 400 μg/disc): −; Zone of Inhibition ([8]; 400μg/disc): −; Zone of Inhibition ([10]; 400 μg/disc): −; Zone of Inhibition ([12]; 400μg/disc): −; Zone of Inhibition ([13]; 400 μg/disc): −; Zone of Inhibition ([14]; 400 μg/disc): −; Zone of Inhibition ([15]; 400 μg/disc): −; cytotoxic effects (in words) [23]: All the compounds except 3 showed significant cytotoxic effects; Zone of Inhibition ([17]; 400 μg/disc): −; Zone of Inhibition ([18]; 400 μg/disc): −; Zone of Inhibition ([19]; 400 μg/disc): −; Zone of Inhibition [20]: −; Zone of Inhibition ([22]; 400 μg/disc): −
4 | CC(C)C=CC[C@@H](C)[C@H]1CC[C@H]2[C@@H]3CC=C4CC(O)CC[C@]4(C)[C@H]3CC[C@]12C (some centres unmarked) [Compound 4, cholesta-5,23-dien-3-ol] | 13 | 124 | 10 | 11 | 13 | 12 | 1.89 | − | 13 | 117 | 12 | 12 | 13 | 14.3 ± 0.87 (≈ 37.1 µM) | 10 | 12 | 12 | 14 | 9 | − | Zone of Inhibition ([8]; 400μg/disc): −; Zone of Inhibition ([12]; 400μg/disc): −
5 | NC[C@H]1O[C@H](O[C@H]2[C@H](O)[C@@H](O[C@H]3O[C@H](CO)[C@@H](O)[C@H](N)[C@H]3O)[C@H](N)C[C@@H]2N)[C@H](O)[C@@H](O)[C@@H]1O [Std. Kan, kanamycin, reference compound] |  |  |  |  |  |  |  |  |  |  |  |  |  |  |  |  |  |  |  |  | Zone of Inhibition ([1]; 30 μg/disc): 27 mm; Zone of Inhibition ([3]; 30 μg/disc): 28 mm; Zone of Inhibition ([4]; 30 μg/disc): 27 mm; Zone of Inhibition ([5]; 30 μg/disc): 29 mm; Zone of Inhibition ([6]; 30 μg/disc): 31 mm; Zone of Inhibition ([10]; 30 μg/disc): 28 mm; Zone of Inhibition ([13]; 30 μg/disc): 31 mm; Zone of Inhibition ([14]; 30 μg/disc): 27 mm; Zone of Inhibition ([15]; 30 μg/disc): 32 mm; Zone of Inhibition ([17]; 30 μg/disc): 31 mm; Zone of Inhibition ([18]; 30 μg/disc): 27 mm; Zone of Inhibition ([19]; 30 μg/disc): 24 mm; Zone of Inhibition [20]: 31 mm; Zone of Inhibition ([22]; 30 μg/disc): 33 mm
6 | C[C@@H]1[C@H](O)[C@@H](C)/C=C/C=C/CC/C=C/C=C/C=C/C=C/C(O[C@H]2O[C@H](C)[C@@H](O)[C@H](N)[C@@H]2O)CC2O[C@](O)(CC(O)C(O)CCC(O)CC(O)CC(O)CC(=O)O[C@H]1C)CC(O)C2C(=O)O (some centres unmarked) [Std. Nystatin, nystatin, reference compound] |  |  |  |  |  |  |  |  |  |  |  |  |  |  |  |  |  |  |  |  | Zone of Inhibition ([8]; 50 μg/disc): 30 mm; Zone of Inhibition ([9]; 50 μg/disc): 29 mm; Zone of Inhibition ([12]; 50 μg/disc): 26 mm; Zone of Inhibition ([21]; 50 μg/disc): 28 mm
7 | CC[C@]1(O)C[C@H]2CN(CCc3c([nH]c4ccccc34)[C@@](C(=O)OC)(c3cc4c(cc3OC)N(C=O)[C@H]3[C@@](O)(C(=O)OC)[C@H](OC(C)=O)[C@]5(CC)C=CCN6CC[C@]43[C@@H]65)C2)C1 [Vincristine, vincristine, reference compound] |  |  |  |  |  |  |  |  |  |  |  |  |  | 3.48 ± 0.36 (≈ 4.22 µM) |  |  |  |  |  |  | 
8 | O.Oc1cc(O)c2c(c1)O[C@H](c1ccc(O)c(O)c1)[C@@H](O)C2 [catechin, reference compound] |  |  |  |  |  |  | 2.14 |  |  |  |  |  |  |  |  |  |  |  |  |  | 
